One assay has as its target T1, LTA4 hydrolase (Rattus norvegicus, UniProt P30349).
T1 construct: the supernatant containing cytosolic LTA4 hydrolase was obtained; from tissue; host or cells: peritoneal neutrophils (90-95% pure, oyster-glycogen elicited) of male Sprague Dawley rats; 100,000 x G supernatant of the homogenate
T1 sequence (P30349 1-611): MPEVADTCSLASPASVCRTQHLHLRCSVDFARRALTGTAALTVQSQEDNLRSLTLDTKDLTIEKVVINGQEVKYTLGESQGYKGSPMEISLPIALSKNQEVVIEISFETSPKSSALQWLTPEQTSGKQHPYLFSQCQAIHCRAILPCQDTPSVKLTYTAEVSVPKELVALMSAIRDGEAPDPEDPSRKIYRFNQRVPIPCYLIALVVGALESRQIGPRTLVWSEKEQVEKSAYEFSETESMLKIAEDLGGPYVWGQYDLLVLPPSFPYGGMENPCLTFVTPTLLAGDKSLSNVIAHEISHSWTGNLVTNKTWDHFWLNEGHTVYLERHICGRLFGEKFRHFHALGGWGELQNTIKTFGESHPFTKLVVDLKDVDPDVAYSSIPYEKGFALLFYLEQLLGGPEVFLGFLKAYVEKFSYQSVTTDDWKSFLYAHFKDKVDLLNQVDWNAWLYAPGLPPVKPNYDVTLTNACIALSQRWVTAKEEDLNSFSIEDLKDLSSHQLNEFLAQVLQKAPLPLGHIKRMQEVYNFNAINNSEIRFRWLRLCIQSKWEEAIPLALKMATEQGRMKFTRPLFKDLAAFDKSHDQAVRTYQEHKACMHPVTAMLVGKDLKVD
The assay can be described thus: Leukotriene-A4 (LTA4) Hydrolase Enzyme Assay (inhibition of LTB4 production by rat neutrophil cytosol, RIA). It is filed as biochemical, rat (male Sprague Dawley). The settings on record: for inhibition at 100 µM: 10^-4 M; for pIC50: rat neutrophil cytosolic LTA4 hydrolase. The text has this: Leukotriene --A4 Hydrolase Inhibition Materials
Leukotriene-A4 -methyl ester and leukotriene-A3 were purchased from Biomol (Cambridge). Trans-stilbene oxide, EDTA, phenylmethyl sulphonyl fluoride were purchased from Sigma (St. Louis). Eagles Basil Media was purchased from GIBCO (Grand Island). LTB4 radioimmunoassay kit was purchased from Amersham (Arlington Heights, Ill.) (#Trk. 840).
Methods were modified from those reported by Evans et al., Biochem. Biophys. Acta, 840:43-50 (1985).
Male Sprague Dawley (CD1) rats (250-400 gm bodyweight) were given oyster glycogen, 1 mg/ml in 0.9% NaCl, by intraperitoneal injection. The animals were sacrificed after 8-20 hours and the peritoneal cavity washed with 10 ml Eagles Basil Medium (pH 7.4, 25 mM HEPES, without glutamine). The collected peritoneal lavage fluid was centrifuged at 150×G, 15 minutes at 4° C. to isolate the neutrophils. The supernatant was removed and the cell pellet was resuspended in 20 cc 10 mM sodium phosphate buffer, pH 7.0 with 2 mM Na-EDTA and 1 mM phenylmethyl sulphonyl fluoride (PMSF).
Leukotriene-A4 Hydrolase Isolation
The cell suspensions, which were 90-95% neutrophils as determined by cytometry, were homogenized by a polytron at 4° C. with three 30 second bursts with cooling on ice in between. The homogenate was centrifuged at 100,000×G for 60 minutes, and the supernatant containing cytosolic LTA4 hydrolase was obtained.
LTA4 Methyl Ester Deesterificaiton
LTA4, the substrate for LTA4 hydrolase, is supplied as the stable methyl ester that must be hydrolized to the active form. LTA4 -methyl ester (5000 ng) was dried under a stream of super-dry Argon (Matheson) to which was added a 1 ml methanol: 10M NaOH (9.8:0.2 v/v). The mixture was stirred 3 hours at 4° C. and used immediately.
LTA4 Hydrolase Enzyme Assay
Supernatant containing LTA4 hydrolase, 0.5 ml, was added to 0.5 ml Tris-acetate buffer, pH 7.8, containing 1 mg/ml fatty-acid free BSA. The mixture was incubated 3 minutes at 37° C. with 0.1 ml containing different enzyme inhibitor and test compound concentrations in DMSO. LTA4, 25 ng in 20 μl methanol, was added and incubation with shaking continued at 37° C. for one minute. The reaction was quenched with 2 ml ice-cold ethanol. The quenched mixture was immediately frozen at -76° C. LTB4 levels were determined by radioimmunoassay (RIA) with a validated commercial kit. Various concentrations of potential enzyme inhibitors were evaluated for inhibition of LTB4 production using a standardized amount of enzyme and substrate. The amount of inhibitor necessary to reduce LTB4 production by fifty percent was calculated as the IC50 value for each inhibitor. IC50 values were determined by least square linear regression analysis from the average ±SEM for 4 experiments.

For assay [1], the system named is A23187-Induced LTB4 Production in Human Promyelocytic Leukemia HL-60 Cells. Kind of assay: A23187-Induced LTB4 Production in Human Promyelocytic Leukemia HL-60 Cells (HL-60 Cell Assay). It is filed as cell-based. The settings on record: for pIC50: A23187-stimulated HL-60 cells, LTB4. More on the design: key to HL-60 Cell Assay % Inhibition: I: inactive at that concentration. From the text: A23187-Induced LTB4 Production in Human Promyelocytic Leukemia HL-60 Cells.
Materials: Calcium ionophore A23187 was obtained from Calbiochem (La Jolla, Calif.). Trans-stilbene oxide was obtained from Sigma (St. Louis, Mis.). Hanks' balanced salt solution (HBSS) (10× concentrate), 1M Hepes, and Dulbecco's modified Eagle medium were obtained from GIBCO Laboratories (Grand Island, N.Y.). Fetal bovine serum was obtained from HyClone Laboratories (Logan, Utah). The LTB4 and PGE2 radioimmunoassay antibodies were purchased from Amersham International plc (Amersham, UK) and NEN Research Products (N. Billerica, Mass.), respectively. Reagents for assay of lactate dehydrogenase (LDH) activity were purchased from Beckman (Carlsbad, Calif.).
Preparation of HL-60 Cells: HL-60 cells were cultured in Dulbecco's modified Eagle medium (supplemented with 20% fetal bovine serum, 20 mM Hepes, 100 U/ml penicillin and 100 mcg/ml streptomycin) and maintained at 37° C. in a humidified atmosphere of 5% CO2 in air. Cells from exponentially growing cultures were seeded at 3×10^5 cells/ml and induced to differentiate into granulocytes wth 0.8% (v/v) N,N-dimethylformamide for 4 days (1,2). Prior to assay, differentiated HL-60 cells were washed once with Hanks' balanced salt solution containing 0.35 mg/ml sodium bicarbonate and 10 mM Hepes, pH 7.3 (HBSS) and resuspended in HBSS at a concentration of 3×10^6 cells/ml. HL-60 cell viability was >95% as assessed by trypan blue exclusion.
HL-60 Cell Assay: DMSO or test compounds as 100× concentrates in DMSO were added in duplicate to 1.0 ml HL-60 cell suspensions (3×10^6cells) and preincubated at 37° C. for 10 minutes in a shaking water bath. After an additional 5 minute incubation with calcium ionophore A23187 (10 mcl @ 5×10^-4 M in DMSO), the cells were pelleted at 12,800×g for 15 seconds and the supernatant removed and stored at -20° C. for quantification of LTB4 or PGE2 via radioimmunoassay and LDH activity.
Statistical Methods: LTB4 and PGE2 data were expressed as percent inhibition of A23187-stimulated controls. For IC50 determinations, the 4 parameter logistic model was used where y is the percent inhibition response and x is the log10 concentration of the inhibitor: [formula] Nonlinear regression was performed using the SAS (3) procedure NLIN to obtain least squares estimates of the four parameters in the above equation: yx (maximum), Y0 (minimum), a (log10 IC50) and b (slope factor). Increases in mean LDH levels for A23187-stimulated cells in the presence of test compound were tested for significance using a one-tailed two sample Student's t-test.

Structures are written as SMILES. pIC50: −log10 of the molar value. Where a name gives a salt, the structure may show the parent alone.

As for `CCCCCCCCCCCCCC[C@@H]1O[C@H]1c1cccc(C(=O)OC)c1` (relative stereo) [Example 22, Methyl 3-(3-tetradecyloxiranyl)benzoate], the inhibition at 100 µM at LTA4 hydrolase came to 20%; in assay [1] (Homo sapiens, HL-60, 10^-4 M), 79%. Moreover, the “HL-60 Cell Assay % Inhibition” value in assay [1] (10^-5 M) is listed as “I”.
`CCCCCCCC/C=C/C=C/C=C/C1OC1c1cccc(C(=O)O)c1` (centres unmarked) [Example 7,Li^+ salt] showed an inhibition at 100 µM on LTA4 hydrolase of 85%. The pIC50 on LTA4 hydrolase is 5.70; in assay [1] (Homo sapiens), 4.82. In assay [1] (10^-6 M), the “HL-60 Cell Assay % Inhibition” value is “I”. Further, 50 µM produced 80% inhibition in assay [1] (Homo sapiens, HL-60, 5 × 10^-5 M). The inhibition at 10 µM in assay [1] (Homo sapiens, HL-60, 10^-5 M) turned out to be 61%.
With `CCCCCCCCCC/C=C/C=C/C1OC1c1cccc(C(=O)OC)c1` (centres unmarked) [Example 4, Methyl 3-[3-(1E,3E-tetradecadienyl)oxiranyl]benzoate], the “HL-60 Cell Assay % Inhibition” value in assay [1] (10^-5 M) is given as “I”. In assay [1] (Homo sapiens, HL-60, 10^-4 M), this molecule gave an inhibition at 100 µM of 29%.
Consider `CCCCCCCCCC/C=C/C=C/C1OC1c1cccc(C(=O)O)c1` (centres unmarked) [Example 4,Li^+ salt], for which the inhibition at 100 µM turned out to be 58% at LTA4 hydrolase and 88% in assay [1] (Homo sapiens, HL-60, 10^-4 M). Also, the pIC50 at LTA4 hydrolase is 4.10; in assay [1] (Homo sapiens) it was 6.80. In assay [1] (Homo sapiens, HL-60, 10^-5 M), this molecule showed an inhibition at 10 µM of 89%. The molecule further had an inhibition at 1 µM in assay [1] (Homo sapiens, HL-60, 10^-6 M) of 77%.
Regarding `CCCCCCCCCCCC/C=C/C1OC1c1cccc(C(=O)OC)c1` (centres unmarked) [Example 1, Methyl 3-[3-(1E-tetradecenyl)oxiranyl]benzoate], the “HL-60 Cell Assay % Inhibition” value in assay [1] (10^-4 M) is reported as “I”.
With `CCCCCCCCCCCC/C=C/C1OC1c1cccc(C(=O)O)c1` (centres unmarked) [Example 1,Li^+ salt], the inhibition at 100 µM on LTA4 hydrolase worked out at 40%; in assay [1] (Homo sapiens, HL-60, 10^-4 M), 94%. In assay [1] (Homo sapiens, HL-60, 10^-5 M), this molecule yielded an inhibition at 10 µM of 96%. The same molecule came in with an inhibition at 1 µM in assay [1] (Homo sapiens, HL-60, 10^-6 M) of 26%. The molecule further had a pIC50 in assay [1] (Homo sapiens) of 5.55.

By inhibition is commonly meant the percentage by which the read-out fell short of the control. The term pIC50 denotes the negative decadic logarithm of the IC50, by convention in mol/L.
